Source: patent US20230203058A1, “MACROCYCLIC DIAMINE DERIVATIVES AS ENT INHIBITORS FOR THE TREATMENT OF CANCERS, AND COMBINATION THEREOF WITH ADENOSINE RECEPTOR ANTAGONISTS” (ITEOS BELGIUM SA, priority 2020, published 2023)
Like-named read-outs stand apart in the source and are kept apart here.

Key:
human ENT1 = target: T1, human ENT1 (Homo sapiens, UniProt Q99808); assay: ENT1 binding assay (competition with Sahenta-DY647 on JAR cells); set-up: JAR cells expressing ENT1 were bought from ATCC® (HTB-144TM); host or cells: JAR cells (human choriocarcinoma line; whole cells); details: competition with Sahenta-DY647 100 nM, 4° C.
T1 sequence (Q99808 1-456): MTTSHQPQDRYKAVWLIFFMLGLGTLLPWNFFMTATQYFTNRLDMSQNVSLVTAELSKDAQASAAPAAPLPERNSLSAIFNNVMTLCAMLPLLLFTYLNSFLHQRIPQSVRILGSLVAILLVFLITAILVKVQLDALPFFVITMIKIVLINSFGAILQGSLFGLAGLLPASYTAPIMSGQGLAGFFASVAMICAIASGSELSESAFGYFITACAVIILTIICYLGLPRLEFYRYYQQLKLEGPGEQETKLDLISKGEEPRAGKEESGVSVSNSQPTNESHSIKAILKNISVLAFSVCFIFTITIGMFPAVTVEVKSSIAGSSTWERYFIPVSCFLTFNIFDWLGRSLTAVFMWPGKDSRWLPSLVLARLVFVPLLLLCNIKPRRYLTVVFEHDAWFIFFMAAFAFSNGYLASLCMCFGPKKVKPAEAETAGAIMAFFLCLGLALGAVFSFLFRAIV
In short: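 Competition binding on intact JAR cells (50000 per well) in HBSS with 10 mM Hepes and 0.1% BSA. Cells pre-incubated with compound 30 min at 4 °C, then Sahenta-DY647 added at its IC90 (100 nM) for another 30 min at 4 °C; after washing, fluorescence read at Ex 630/Em 670 nm.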

[1] = tested on: stimulated primary human T cells; assay: T cell proliferation assay (rescue of proliferation in presence of ATP, CFSE dilution); assay type: cell-based; details: 100 uM ATP
Experimental: The aim of this study was to determine the potency of equilibrative nucleoside transporter 1 (ENT1) inhibitors to rescue proliferation by stimulated primary human T cells incubated in the presence of 100 uM Adenosine triphosphate (ATP), in baseline conditions (condition A) or in the presence of various proteins known to bind small molecules (condition B). Condition A: X-VIVO15 Condition B: X-VIVO15, 2% Human Serum Albumine (HSA) and 0,1% α-1-Acid Glycoprotein (AAG)
Cryopreserved purified human CD3+ T cells were thawed and washed twice with RPMI1640 medium, UltraGlutamine containing 10% hiFBS.
Cells were suspended in PBS containing 10% hiFBS. Cells were stained with CFSE by adding 2 µM solution in PBS, to get a final 1 µM CFSE solution. Cells were incubated while rotating for 5 minutes. Reaction was stopped by adding PBS with 10% FBS and cells were centrifuged for 5 minutes at 1500 rpm.
Cells were resuspended at 1.6 ×10^6 cells/mL, either in X-VIVO15 medium or in 4% Human Serum Albumin and 0,2% α-1-Acid Glycoprotein. 50 µL of cell suspension (8×10^4 T cells) was added to wells of sterile round-bottom 96-well plates. Cells were activated by adding 50 µL of anti-CD3 anti-CD28 coated microbeads, suspended either in XVIVO-15 medium or in 4% HSA and 0,2% α-1-Acid Glycoprotein, at a ratio of one microbead per two cells. Serial dilutions of the ENT1 inhibitors were prepared in X-VIVO15 from 10 mM stock solutions in DMSO, and 50 µL was added to the wells. ATP powder was diluted in X-VIVO15, and 50 µL of this compound was added to the wells to reach a final assay concentration of 100 µM. Final volume of 200 µL. The experiments were also performed in 384 well plates - all volumes reduced by a factor of 4 (12,5 µL) with a final volume of 50 µL. Experiments were performed in duplicate. The cells were placed in a 37° C. humidified tissue culture incubator with 5% CO2 for 72 hours for 96 well plates, 96 hours for 384 well plates. After 72 or 96 hours, proliferation was measured determined by CFSE dilution via flow cytometry.

[2] = Condition A: X-VIVO15, read-out: T Cell proliferation (Condition A) IC50
[3] = Condition B: X-VIVO15, 2% HSA and 0,1% AAG, read-out: (2) T Cell proliferation (Condition B) IC50

Compound | IC50 (human ENT1) [nM] | IC50 [1, 2] [nM] | IC50 [1, 3] [nM]
COc1cc(C(=O)O[C@@H]2CCCOc3cccc(c3)C(=O)OCCCN3CCCN(CC2)CC3)cc(OC)c1OC (stereo in doubt) [Compound 18, (12R)-6-oxo-5,8-dioxa-1(1,4)-diazepana-7(1,3)-benzenacyclotetradecaphane-12-yl 3,4,5-trimethoxybenzoate] | 1 to 20 | 1 to 20 | > 500
COc1cc(C(=O)O[C@@H]2CCCOc3cc(cc(OC)c3OC)C(=O)OCCCN3CCCN(CC2)CC3)cc(OC)c1OC [Compound 1, (12R)-74,75-dimethoxy-6-oxo-5,8-dioxa-1(1,4)-diazepana-7(1,3)-benzenacyclotetradecaphane-12-yl 3,4,5-trimethoxybenzoate] | 1 to 20 | < 1 | < 1
COc1cc(C(=O)O[C@@H]2CCCOc3cc(cc(OC)c3OC)C(=O)OCCCN3CCN(CC2)CC(F)(F)C3)cc(OC)c1OC [Compound 6, (12R)-16,16-difluoro-74,75-dimethoxy-6-oxo-5,8-dioxa-1(1,4)-diazepana-7(1,3)-benzenacyclotetradecaphane-12-yl 3,4,5-trimethoxybenzoate] | 1 to 20 | < 1 | 20 to 500
COc1cc2cc(c1OC)CCC[C@@H](OC(=O)c1cc(OC)c(OC)c(OC)c1)CCN1CCCN(CCCNC2=O)CC1 [Compound 14, (11R)-74,75-dimethoxy-6-oxo-5-aza-1(1,4)-diazepana-7(1,3)-benzenacyclotridecaphane-11-yl 3,4,5-trimethoxybenzoate] | 1 to 20 | 1 to 20 | > 500
COc1cc2cc(c1OC)OCCC[C@@H](OC(=O)c1ccccc1)CCN1CCCN(CCCOC2=O)CC1 [Compound 32, (12R)-74,75-dimethoxy-6-oxo-5,8-dioxa-1(1,4)-diazepana-7(1,3)-benzenacyclotetradecaphane-12-yl benzoate] | – | < 1 | 20 to 500
COc1cc2cc(c1OC)OCCC[C@H](OC(=O)c1ccccc1)CCN1CCCN(CCCOC2=O)CC1 [Compound 33, (12S)-74,75-dimethoxy-6-oxo-5,8-dioxa-1(1,4)-diazepana-7(1,3)-benzenacyclotetradecaphane-12-yl benzoate] | > 500 | > 500 | > 500
COc1cc2cc(c1OC)OCCCC(O/N=C\c1ccccc1)CCN1CCCN(CCCOC2=O)CC1 (stereo not drawn) [Compound 37, (Z)-benzaldehyde O-(74,75-dimethoxy-6-oxo-5,8-dioxa-1(1,4)-diazepana-7(1,3)-benzenacyclotetradecaphane-12-yl) oxime] | 20 to 500 | 1 to 20 | > 500
COc1cc2cc(c1OC)OCCC[C@@H](O)CCN1CCCN(CCCOC2=O)CC1 [Compound 39, (12R)-12-hydroxy-74,75-dimethoxy-5,8-dioxa-1(1,4)-diazepana-7(1,3)-benzenacyclotetradecaphan-6-one] | > 500 | 20 to 500 | > 500
COc1cc2cc(c1OC)OCCCC(OC(=O)C1CCC(C(F)(F)F)CC1)CCN1CCCN(CCCOC2=O)CC1 (stereo not drawn) [Compound 106, 74,75-dimethoxy-6-oxo-5,8-dioxa-1(1,4)-diazepana-7(1,3)-benzenacyclotetradecaphane-12-yl 4-(trifluoromethyl)cyclohexane-1-carboxylate] | 1 to 20 | – | –
COc1cc2cc(c1OC)OCCCC(n1nnc(-c3ccccc3)n1)CCN1CCCN(CCCOC2=O)CC1 (stereo not drawn) [Compound 107, 74,75-dimethoxy-12-(5-phenyl-2 H-tetrazol-2-yl)-5,8-dioxa-1(1,4)-diazepana-7(1,3)-benzenacyclotetradecaphan-6-one] | 1 to 20 | – | –
COc1cc2cc(c1OC)OCCCC(n1cc(-c3ccccc3)nn1)CCN1CCCN(CCCOC2=O)CC1 (stereo not drawn) [Compound 108, 74,75-dimethoxy-12-(4-phenyl-1 H-1,2,3-triazol-1-yl)-5,8-dioxa-1(1,4)-diazepana-7(1,3)-benzenacyclotetradecaphan-6-one] | > 500 | – | –
COc1cc2cc(c1OC)OCCCC(OC(=O)CCN1C(=O)CCC1=O)CCN1CCCN(CCCOC2=O)CC1 (stereo not drawn) [Compound 110, 74,75-dimethoxy-6-oxo-5,8-dioxa-1(1,4)-diazepana-7(1,3)-benzenacyclotetradecaphane-12-yl 3-(2,5-dioxopyrrolidin-1-yl)propanoate] | 20 to 500 | – | –
COc1cc2cc(c1OC)OCCCC(OC(=O)C1CCCC(OC)C1)CCN1CCCN(CCCOC2=O)CC1 (stereo not drawn) [Compound 111, 74,75-dimethoxy-6-oxo-5,8-dioxa-1(1,4)-diazepana-7(1,3)-benzenacyclotetradecaphane-12-yl 3-methoxycyclohexane-1-carboxylate] | 1 to 20 | – | –
COc1cc2cc(c1OC)OCCCC(O/N=C/c1ccccc1)CCN1CCCN(CCCNC2=O)CC1 (stereo not drawn) [Compound 114, (E)-benzaldehyde O-(74,75-dimethoxy-6-oxo-8-oxa-5-aza-1(1,4)-diazepana-7(1,3)-benzenacyclotetradecaphane-12-yl) oxime] | > 500 | – | –
COc1cc2cc(c1OC)OCCC[C@@H](O/N=C/c1ccccc1)CCN1CCCN(CCCNC2=O)CC1 [Compound 115, (E)-benzaldehyde O-((12R)-74,75-dimethoxy-6-oxo-8-oxa-5-aza-1(1,4)-diazepana-7(1,3)-benzenacyclotetradecaphane-12-yl) oxime] | > 500 | – | –
COc1cc2cc(c1OC)OCCCC(O)CCN1CCCN(CCCNC2=O)CC1 (stereo not drawn) [Compound 117, 12-hydroxy-74,75-dimethoxy-8-oxa-5-aza-1(1,4) -diazepana-7(1,3)-benzenacyclotetradecaphan-6-one] | > 500 | – | –
COc1cc(C(=O)O[C@H]2CCCOc3cc(cc(OC)c3OC)C(=O)OCCCN3CCN(CC2)CC(F)(F)C3)cc(OC)c1OC [Compound 119, (12S)-16,16-difluoro-74,75-dimethoxy-6-oxo-5,8-dioxa-1(1,4)-diazepana-7(1,3)-benzenacyclotetradecaphane-12-yl 3,4,5-trimethoxybenzoate] | 1 to 20 | – | –
COc1cc(C(=O)OC2CCCOc3cc(cc(C(N)=O)c3Cl)C(=O)OCCCN3CCCN(CC2)CC3)cc(OC)c1OC (stereo not drawn) [Compound 120, 75-carbamoyl-74-chloro-6-oxo-5,8-dioxa-1(1,4)-diazepana-7(1,3)-benzenacyclotetradecaphane-12-yl 3,4,5-trimethoxybenzoate] | 1 to 20 | – | –
COc1cc(C(=O)O[C@H]2CCCOc3cc(cc(Cl)c3C(N)=O)C(=O)NCCCN3CCCN(CC2)CC3)cc(OC)c1OC [Compound 121, (12S)-74-carbamoyl-75-chloro-6-oxo-8-oxa-5-aza-1(1,4)-diazepana-7(1,3)-benzenacyclotetradecaphane-12-yl 3,4,5-trimethoxybenzoate] | 20 to 500 | – | –
COc1cc(C(=O)OC2CCCOc3cc(cc(Cl)c3Br)C(=O)NCCCN3CCCN(CC2)CC3)cc(OC)c1OC (stereo not drawn) [Compound 122, 74-bromo-75-chloro-6-oxo-8-oxa-5-aza-1(1,4)-diazepana-7(1,3)-benzenacyclotetradecaphane-12-yl 3,4,5-trimethoxybenzoate] | 1 to 20 | – | –
COc1cc(C(=O)OC2CCCOc3cc(cc(Cl)c3C#N)C(=O)NCCCN3CCCN(CC2)CC3)cc(OC)c1OC (stereo not drawn) [Compound 123, 75-chloro-74-cyano-6-oxo-8-oxa-5-aza-1(1,4)-diazepana-7(1,3)-benzenacyclotetradecaphane-12-yl 3,4,5-trimethoxybenzoate] | 1 to 20 | – | –
